From paper PMC11714206, “Massively Parallel Screening of Toll/Interleukin‐1 Receptor (TIR)‐Derived Peptides Reveals Multiple Toll‐Like Receptors (TLRs)‐Targeting Immunomodulatory Peptides” (Advanced Science, 2024)

Biological target: T1, MyD88^TIR (Homo sapiens, UniProt Q99836)
T1 construct: MyD88 (residues 148–296); 6xHis; made in house; host or cells: E. coli BL21 (DE3)
Assay: T‐Surf phage library (P8 and P3) selection against MyD88^TIR, four rounds, NGS read counts
Format: binding
Conditions: for Population: 4th round of selection against MyD88 TIR, share of NGS reads; for P8_MyD88 Rank (after) / P8_MyD88 Rank (before): P8 library; for P3_MyD88 Rank (after) / P3_MyD88 Rank (before): P3 library
Method in brief: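 P8 and P3 T‐Surf libraries panned against plate-coated TIR domains (5 µg mL^−1), 1 h binding at RT, acid elution and TG1/helper-phage amplification per round. After four rounds, pools were PCR-barcoded and sequenced (NovaSeq, 100 bp paired-end, Phred ≥30); peptides ranked by read counts.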

[1] = P8_MyD88: rank by NGS read count after grouping
[2] = P8_MyD88: rank by NGS read count before grouping
[3] = P8_MyD88 pool: P8 T-Surf phage library
[4] = P8_MyD88: rank by count after grouping
[5] = P8_MyD88: rank by count before grouping
[6] = 4R selection against MyD88, rank after grouping
[7] = 4R selection against MyD88, rank before grouping
[8] = selection against MyD88 TIR, rank by count after grouping
[9] = selection against MyD88 TIR, rank by count before grouping
[10] = P3_MyD88 pool: P3 T-Surf phage library
[11] = P3_MyD88: rank by count after grouping
[12] = P3_MyD88: rank by count before grouping
[13] = selection against MyD88, rank after grouping
[14] = selection against MyD88, rank before grouping
[15] = selection against MyD88, rank by count after grouping
[16] = selection against MyD88, rank by count before grouping

T1 sequence (Q99836 148-296): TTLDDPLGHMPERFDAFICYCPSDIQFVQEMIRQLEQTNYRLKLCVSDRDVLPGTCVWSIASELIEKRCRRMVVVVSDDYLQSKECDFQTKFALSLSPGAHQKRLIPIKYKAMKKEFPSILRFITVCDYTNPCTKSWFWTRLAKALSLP

Sequence: YASYDDNDYYWVTHVLLRH
- Rank (after) [1]: 997
- Rank (before) [2]: 1799

Sequence: YASYDDNDYYWVTHVLLRHM
- Population [3]: 0.00732%

Sequence: YASYDDNDYYWVTHVLLRPM
- Rank (after) [4]: 139
- Rank (before) [5]: 255

Sequence: YASYDDNDYYWVTHVLLSR
- P8_MyD88 Rank (after) [6]: 638
- P8_MyD88 Rank (before) [7]: 1808

Sequence: YASYDDNDYYWVTPVLLRLV
- Rank (after) [4]: 435
- Rank (before) [5]: 1767

Sequence: YASYDDNYYYWVTHVLLRRL
- Rank (after) [1]: 969
- Rank (before) [2]: 1775

Sequence: YATSSWALNELVYLIM
- Rank (after) [4]: 146
- Rank (before) [5]: 162
- Population [3]: 0.00886%

Sequence: YELAFSHCCLFEGHST
- Rank (after) [1]: 1007
- Rank (before) [2]: 1925

Sequence: YELDFSHFCCLMARR
- Rank (after) [1]: 929
- Rank (before) [2]: 1947

Sequence: YELDFSHFSLFEGQAT
- Rank (after) [4]: 463
- Rank (before) [5]: 1949

Sequence: YELDFSHFWLFDAGGDA
- P8_MyD88 Rank (after) [8]: 265
- P8_MyD88 Rank (before) [9]: 537

Sequence: YELDFSHFWLFDGHATGEA
- P8_MyD88 Rank (after) [8]: 239
- P8_MyD88 Rank (before) [9]: 1938

Sequence: YELDFSHFWLFDGQAGGEA
- P8_MyD88 Rank (after) [8]: 284
- P8_MyD88 Rank (before) [9]: 664

Sequence: YELDFSHFWLFEARGDA
- P8_MyD88 Rank (after) [6]: 636
- P8_MyD88 Rank (before) [7]: 1944

Sequence: YELDFSHFWLFEGPAG
- P8_MyD88 Rank (after) [8]: 245
- P8_MyD88 Rank (before) [9]: 538

Sequence: YELDFSHFWLFVGQAP
- Rank (after) [1]: 1008
- Rank (before) [2]: 1929

Sequence: YELVHVWSSKANSLVG
- Population [10]: 0.0032%

Sequence: YFRNESEFIQEIVQWV
- Rank (after) [4]: 118
- Rank (before) [5]: 125
- Population [3]: 0.0162%

Sequence: YGHESEIIKEIVDTIV
- Population [10]: 0.00262%

Sequence: YHPLDLPRGKAIKPEILG
- Rank (after) [11]: 189
- Rank (before) [12]: 1615

Sequence: YIIWFEDIQLIHLLCD
- P8_MyD88 Rank (after) [13]: 564
- P8_MyD88 Rank (before) [14]: 2108

Sequence: YILYEDQTIKFVFRDFIQEL
- Rank (after) [4]: 385
- Rank (before) [5]: 988

Sequence: YITRFDDIQQIELFWD
- P8_MyD88 Rank (after) [15]: 688
- P8_MyD88 Rank (before) [16]: 2121

Sequence: YITWFDDIQQIQVFWV
- Rank (after) [1]: 978
- Rank (before) [2]: 2116

Sequence: YITWFEDFQQILLFWI
- Rank (after) [1]: 924
- Rank (before) [2]: 2117

Sequence: YKLALHFRDWLLGAYI
- P8_MyD88 Rank (after) [15]: 742
- P8_MyD88 Rank (before) [16]: 2138

Sequence: YKLALHFRDWLVGVH
- Rank (after) [1]: 901
- Rank (before) [2]: 2137

Sequence: YKLALHFRVWRVGVSI
- Rank (after) [1]: 883
- Rank (before) [2]: 2135

Sequence: YLEWPLDENQQLIFWF
- Rank (after) [4]: 477
- Rank (before) [5]: 1960

Sequence: YLKCGYPCFCDRLRFA
- P3_MyD88 Rank (after) [6]: 620
- P3_MyD88 Rank (before) [7]: 1566

Sequence: YLKVESWRQALEKAGKL
- P3_MyD88 Rank (after) [8]: 268
- P3_MyD88 Rank (before) [9]: 864

Sequence: YLKWAIRGFGIVCVL
- P3_MyD88 Rank (after) [8]: 238
- P3_MyD88 Rank (before) [9]: 862

Sequence: YLKWGSPWFWDRLRFGPIGQ
- P3_MyD88 Rank (after) [13]: 568
- P3_MyD88 Rank (before) [14]: 1571

Sequence: YLKWGYPRFWDRLRCA
- P3_MyD88 Rank (after) [8]: 216
- P3_MyD88 Rank (before) [9]: 1602

Sequence: YLKWGYPRFWDRLRFV
- P3_MyD88 Rank (after) [15]: 729
- P3_MyD88 Rank (before) [16]: 1603

Sequence: YLKWGYPRFWDRQRFP
- P3_MyD88 Rank (after) [8]: 282
- P3_MyD88 Rank (before) [9]: 1431

Sequence: YLKWGYPWFGIVCVL
- Rank (after) [11]: 166
- Rank (before) [12]: 855

Sequence: YLKWGYPWFWDRLP
- Rank (after) [11]: 142
- Rank (before) [12]: 572

Sequence: YLKWGYPWFWDRLRFA
- P8_MyD88 Rank (after) [13]: 571
- P8_MyD88 Rank (before) [14]: 2084

Sequence: YLKWGYPWFWDRLRYAM
- Rank (after) [11]: 97
- Rank (before) [12]: 342

Sequence: YLKWGYPWFWSKLRYAM
- Rank (after) [11]: 110
- Rank (before) [12]: 575

Sequence: YLKWGYRWYWDRLRFA
- P3_MyD88 Rank (after) [13]: 543
- P3_MyD88 Rank (before) [14]: 1576

Sequence: YLKWGYVVLGSSAFC
- P3_MyD88 Rank (after) [15]: 714
- P3_MyD88 Rank (before) [16]: 1574

Sequence: YLLAGDFWIFFTLLTA
- P8_MyD88 Rank (after) [15]: 738
- P8_MyD88 Rank (before) [16]: 1964

Sequence: YLLLGVFQTIFARRTA
- P8_MyD88 Rank (after) [8]: 276
- P8_MyD88 Rank (before) [9]: 1965

Sequence: YLLLNVFQIIFARGPE
- P8_MyD88 Rank (after) [13]: 546
- P8_MyD88 Rank (before) [14]: 2018

Sequence: YLLLRVLQTIFLRRTD
- Rank (after) [1]: 898
- Rank (before) [2]: 1967

Sequence: YLLLSEFHSELALRPL
- P8_MyD88 Rank (after) [6]: 637
- P8_MyD88 Rank (before) [7]: 2016

Sequence: YLLLSVFQTICALRTE
- Rank (after) [1]: 963
- Rank (before) [2]: 1999

Sequence: YLLLSVFQTIFARRTD
- Population [3]: 0.00771%
